Results reported in ChEMBL document CHEMBL1212750, “Continuous clindamycin infusion, an innovative approach to treating bone and joint infections” (Antimicrob Agents Chemother, 2010).
Activity calls are given as the source filed them. No cut-off for these calls is given here.

What was measured:
[1] = Cmax po dosed in human co-treated with rifampin; format: ADME, organism-based; set-up: route oral; details: in vivo
Staphylococcus aureus [2] = test: Antimicrobial activity against Staphylococcus aureus infection in human assessed as curing from bone/joint infection at 600 mg, iv followed by 30 to 40 mg/kg of body weight, iv followed by oral regimen upto 30 months; format: functional, organism-based
Serum [3] = test: Drug level in bone/joint infection patient serum assessed as median concentration at 2400 mg, iv after 3 to 14 days; format: ADME, organism-based; details: human, in vivo
Serum [4] = test: Drug level in bone/joint infection patient serum assessed as median concentration at 2400 mg, iv after 8 to 28 days; format: ADME, organism-based; details: human, in vivo
Staphylococcus aureus [5] = test: Antimicrobial activity against Staphylococcus aureus SJ11617; format: functional

| Cmax [1] [ng/mL] | Drug uptake (Serum [3]) [mg/L] | Drug uptake (Serum [4]) [mg/L] | MIC (Staphylococcus aureus [5]) [µg/mL] | Structure (SMILES) | Activity (Staphylococcus aureus [2]) |
| --- | --- | --- | --- | --- | --- |
| < 2500 | 5 | 6.2 | – | CCC[C@@H]1C[C@@H](C(=O)N[C@@H]([C@H]2O[C@H](SC)[C@H](O)[C@@H](O)[C@H]2O)[C@H](C)Cl)N(C)C1 [CLINDAMYCIN] | Active |
| – | – | – | > 512 | C[C@@H]1O[C@@H]1P(=O)(O)O [FOSFOMYCIN] | – |
| – | – | – | > 256 | CC(=O)O[C@H]1C[C@@]2(C)[C@@H](C[C@@H](O)[C@H]3[C@@]4(C)CC[C@@H](O)[C@@H](C)[C@@H]4CC[C@@]32C)/C1=C(\CCC=C(C)C)C(=O)O [FUSIDIC ACID] | – |
| – | – | – | > 128 | CO[C@H]1/C=C/O[C@@]2(C)Oc3c(C)c(O)c4c(O)c(c(/C=N/N5CCN(C)CC5)c(O)c4c3C2=O)NC(=O)/C(C)=C\C=C\[C@H](C)[C@H](O)[C@@H](C)[C@@H](O)[C@@H](C)[C@H](OC(C)=O)[C@@H]1C [RIFAMPIN] | – |
